From paper PMC3884839, “Pharmacokinetics and pharmacodynamics utilizing unbound target tissue exposure as part of a disposition-based rationale for lead optimization of benzoxaboroles in the treatment of Stage 2 Human African Trypanosomiasis” (Parasitology, 2013) come the findings set out here.

The test system of series [1] is MDCKII-hMDR1 monolayer (Pgp efflux transporter). Description: MDCKII-hMDR1 monolayer permeability and Pgp-mediated efflux. It counts as in vitro ADME. The method, then:
The propensity of test compounds to cross the BBB was examined using an in vitro MDCKII-hMDR1 monolayer assay (Polli et al. [2001]). In summary, MDCKII-hMDR1 cells (Netherlands Cancer Institute, Amsterdam, the Netherlands) were seeded at a density of 3×10^5 cells per well onto microporous polycarbonate membranes in 12 well Costar Transwell plates (Corning Inc., Lowell, MA). The cells were incubated for 3 days during which time they formed confluent monolayers. Trans-epithelial resistance (TEER) was measured for each insert to ensure the integrity of the monolayer (acceptable TEER >160 Ω cm^2). The permeability and susceptibility for Pgp-mediated efflux was evaluated by adding each compound at a concentration of 3 μM, in the presence or absence of 2 μM GF120918 (a potent Pgp inhibitor), to the apical compartment. Competency of the Pgp efflux transporter was confirmed by assay of propranolol (non-substrate) and amprenavir (substrate). Cell monolayers were incubated in triplicate with shaking (160 rpm) at 37 °C in a 5% CO2-enriched humidified atmosphere for 1 h. Samples were removed from the apical and basolateral compartments after incubation and assayed for test compound concentrations by LC-MSMS. Values for mass balance, PappA−B, PappA−B+GF918, and absorption quotient (AQ) were calculated for each compound (Troutman and Thakker, [2003]; Thiel-Demby et al. [2004]). Acceptance criterion for mass balance was 70–120%.

Series [2] can be described thus: Single oral dose pharmacokinetics and CNS penetration in male CD-1 mice. The class given is in vivo, mouse. As to the method:
The CNS disposition and pharmacokinetics of the benzoxaboroles were evaluated in infected and uninfected mice following oral administration. In vivo phases of single-dose rodent PK studies were performed at Vivisource (Waltham, MA) following Institutional Animal Care and Use Committee (IACUC) review in an Association for Assessment and Accreditation of Laboratory Animal Care International (AAALAC)-approved facility. Studies in Trypanosoma brucei brucei (TREU 667 strain) infected mice, or uninfected satellite animals, were performed after IACUC review at Pace University (NewYork, NY).
Male CD-1 or female Swiss Webster mice (approximately 25 g) were administered test compounds by oral gavage either once (QD) or twice per day (Q12 h) with doses ranging between 6 and 100 mg kg^−1 as described below. All compounds were formulated as an in situ sodium salt in 2% (v/v) ethanol, 5% (m/v) dextrose, to yield typically clear colourless solutions that were administered at 4 mL kg^−1. Blood samples for pharmacokinetic studies were collected into polypropylene tubes containing K2EDTA anticoagulant and stored on wet ice until centrifuged and processed to plasma. Plasma was stored at −80 °C. Blood samples from mice were collected via cardiac puncture under terminal anaesthesia. Rodents were euthanized in a CO2 chamber before collection of terminal blood or tissue samples. Brain tissues were blotted dry and stored at approximately −80 °C.
Plasma (50 μL) was treated with 4 volumes of ice-cold methanol (containing 25 ng mL^−1 of either deuterium (d6)-labelled SCYX-7158 internal standard (SCYX-5232) for SCYX-7158 analyses or a related benzoxaborole for other compounds) to precipitate proteins. Treated samples were gently mixed on a 96-well plate shaker for approximately 10 min then centrifuged at approximately 3000 g and 15 °C for 15 min. Supernatants were transferred to fresh 96-well plates for analysis by means of LC-MSMS. Samples of tissue homogenate (50 μL), or buffer from protein binding studies, were treated similarly to plasma samples.
All biological samples were assayed by a verified LC-MSMS method employing two dimensional chromatographic separation to overcome ion suppression (Annesely, [2003]) caused by co-elution of endogenous components with benzoxaboroles. In summary, treated samples were loaded onto Phenomenex (Torrance, CA) Synergi Polar RP, 4 μ, 50×2 mm extraction columns and subsequently back-eluted onto a Phenomenex Luna C8(2) 3 μ, 50×2 mm analytical columns protected by a Phenomenex C8 guard cartridge. Mobile phases for extraction and analytical columns consisted of 5 mM ammonium formate and 0·1% (v/v) formic acid in water (A), and 5 mM ammonium formate and 0·1% (v/v) formic acid in methanol (B). […]

For `CC1(C)OB(O)c2cc(NC(=O)c3ccc(F)cc3C(F)(F)F)ccc21` [SCYX-7158], the P-gp classification result in series [1] is “Non-substrate”. The “Mass balance A–B+GF918” value in series [1] (3 μM, with GF918) turned out to be 75%. The “Mass balance A–B” value in series [1] (3 μM, without GF918) is 79%. Besides, in series [2], the “time CNS (brain) total concentration above MIC” value is approximately 20 h.
